Measured values published in ChEMBL document CHEMBL1131992, “Bifunctional 2-naphthyl propargylic sulfones exhibiting high DNA intercalating and alkylating activity” (Bioorg Med Chem Lett, 1999).

Tests used:
[1] = system: Nucleic Acid; assay: DNA cleavage activity as 70% FormI DNA cleavage; assay type: nucleic-acid assay
[2] = system: P388; assay: Cytotoxicity against P388 cell line(mouse T cell leukemia); assay type: functional, cell-based

SMILES	C70 [1]	IC50 [2]
O=C(OCC#CCCCC#CCS(=O)(=O)c1ccc2ccccc2c1)c1ccc2cc3ccccc3cc2c1		17 µM
O=C(OCC#CCCCC#CCS(=O)(=O)c1ccc2ccccc2c1)c1cccc2cc3ccccc3cc12		42 µM
O=C(OCC#CCCCC#CCS(=O)(=O)c1ccc2ccccc2c1)c1ccc2c(c1)C(=O)c1ccccc1C2=O		41 µM
CCCC(O)C#CCS(=O)(=O)c1ccc2ccccc2c1 (stereo not drawn)	5 µM	
O=S(=O)(CC#CCCCC#CCO)c1ccc2ccccc2c1	10 µM	10 µM

More lines, main results first:

C70 [1]	SMILES	IC50 [2]
1000 µM	O=S(=O)(CC#CCCCC#CCO)c1ccccc1	
800 µM	CCCC(O)C#CCS(=O)(=O)c1ccccc1 (stereo not drawn)	
